Measurements as given in patent US20240376084A1, “INHIBITORS OF ALPHA-HEMOLYSIN OF STAPHYLOCOCCUS AUREUS” (Helmholtz-Zentrum Fur Infektionsforschung GmbH, priority 2021, published 2024).

Columns and labels:
[1] = target: hemolysin alpha from Staphylococcus aureus (Staphylococcus aureus, UniProt P09616); assay: cell-based
[2] = target: S. aureus Alpha hemolysin (Staphylococcus aureus, UniProt P09616); assay: cell-based; details: A549-LDH Assay activity
Sequence of S. aureus Alpha hemolysin (P09616 27-319 limits assumed): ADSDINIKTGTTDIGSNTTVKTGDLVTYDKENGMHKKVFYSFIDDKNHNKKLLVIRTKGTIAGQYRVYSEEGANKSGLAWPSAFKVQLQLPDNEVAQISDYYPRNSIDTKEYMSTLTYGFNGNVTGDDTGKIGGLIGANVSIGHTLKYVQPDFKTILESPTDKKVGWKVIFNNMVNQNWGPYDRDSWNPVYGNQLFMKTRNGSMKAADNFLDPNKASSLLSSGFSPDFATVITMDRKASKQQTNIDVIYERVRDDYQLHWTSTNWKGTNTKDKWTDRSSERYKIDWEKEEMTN

Sequence of hemolysin alpha from Staphylococcus aureus (P09616 27-319 limits assumed): as above

Row | SMILES | IC50 [1] | EC50 [2]
1 | O=c1[nH]c2cc(F)c(S(=O)(=O)Nc3ccc(-c4cccnc4)c(Cl)c3)cc2[nH]c1=O [Compound 99, N-(3-chloro-4-(pyridin-3-yl)phenyl)-7-fluoro-2,3-dioxo-1,2,3,4-tetrahydroquinoxaline-6-sulfonamide] | 100 to 1000 nM | 1000 to 6000 nM
2 | CC(C)c1cc2[nH]c(=O)c(=O)[nH]c2cc1S(=O)(=O)Nc1ccc(-c2ccsc2)c(Cl)c1 [Compound 100, N-(3-chloro-4-(thiophen-3-yl)phenyl)-7-isopropyl-2,3-dioxo-1,2,3,4-tetrahydroquinoxaline-6-sulfonamide] | 100 to 1000 nM | 1000 to 6000 nM
3 | CC(C)c1ccc(NS(=O)(=O)c2cc3[nH]c(=O)c(=O)[nH]c3cc2F)cc1 [Compound 101, 7-fluoro-N-(4-isopropylphenyl)-2,3-dioxo-1,2,3,4-tetrahydroquinoxaline-6-sulfonamide] | 100 to 1000 nM | 100 to 1000 nM
4 | COc1ccccc1-c1c(C)cc(NS(=O)(=O)c2cc3[nH]c(=O)c(=O)[nH]c3cc2C)cc1C [Compound 102, N-(2′-methoxy-2,6-dimethyl-[1,1′-biphenyl]-4-yl)-7-methyl-2,3-dioxo-1,2,3,4-tetrahydroquinoxaline-6-sulfonamide] | 100 to 1000 nM | 30 to 100 nM
5 | Cc1ccccc1-c1ccc(NS(=O)(=O)c2cc3[nH]c(=O)c(=O)[nH]c3cc2C)cc1C [Compound 103, N-(2,2′-dimethyl-[1,1′-biphenyl]-4-yl)-7-methyl-2,3-dioxo-1,2,3,4-tetrahydroquinoxaline-6-sulfonamide] | 100 to 1000 nM | 100 to 1000 nM
6 | Cc1cc2[nH]c(=O)c(=O)[nH]c2cc1S(=O)(=O)Nc1cc(C)c(-c2ccccc2Cl)c(C)c1 [Compound 104, N-(2′-chloro-2,6-dimethyl-[1,1′-biphenyl]-4-yl)-7-methyl-2,3-dioxo-1,2,3,4-tetrahydroquinoxaline-6-sulfonamide] | 100 to 1000 nM | 100 to 1000 nM
7 | O=c1[nH]c2cc(Cl)c(S(=O)(=O)Nc3ccc(-c4ccc(F)c(Cl)c4F)c(Cl)c3)cc2[nH]c1=O [Compound 105, 7-chloro-N-(2,3′-dichloro-2′,4′-difluoro-[1,1′-biphenyl]-4-yl)-2,3-dioxo-1,2,3,4-tetrahydroquinoxaline-6-sulfonamide] | 100 to 1000 nM | 100 to 1000 nM
8 | Cc1cc(NS(=O)(=O)c2cc3[nH]c(=O)c(=O)[nH]c3cc2Cl)cc(C)c1-c1ccccc1 [Compound 106, 7-chloro-N-(2,6-dimethyl-[1,1′-biphenyl]-4-yl)-2,3-dioxo-1,2,3,4-tetrahydroquinoxaline-6-sulfonamide] | 100 to 1000 nM | 30 to 100 nM
9 | Cc1cc2[nH]c(=O)c(=O)[nH]c2cc1S(=O)(=O)Nc1cc(C)c(-c2ccoc2)c(C)c1 [Compound 107, N-(4-(furan-3-yl)-3,5-dimethylphenyl)-7-methyl-2,3-dioxo-1,2,3,4-tetrahydroquinoxaline-6-sulfonamide] | 100 to 1000 nM | 30 to 100 nM
10 | Cc1cc2[nH]c(=O)c(=O)[nH]c2cc1S(=O)(=O)Nc1ccc(-c2ccccc2Cl)cc1 [Compound 108, N-(2′-chloro-[1,1′-biphenyl]-4-yl)-7-methyl-2,3-dioxo-1,2,3,4-tetrahydroquinoxaline-6-sulfonamide] | 100 to 1000 nM | 100 to 1000 nM
11 | CC(C)c1cc2[nH]c(=O)c(=O)[nH]c2cc1S(=O)(=O)Nc1ccc(-c2cccc(N(C)C)c2)c(Cl)c1 [Compound 109, N-(2-chloro-3′-(dimethylamino)-[1,1′-biphenyl]-4-yl)-7-isopropyl-2,3-dioxo-1,2,3,4-tetrahydroquinoxaline-6-sulfonamide] | 100 to 1000 nM | 100 to 1000 nM
12 | Cc1cc(C2CC2)ccc1NS(=O)(=O)c1cc2[nH]c(=O)c(=O)[nH]c2cc1C [Compound 110, N-(4-cyclopropyl-2-methylphenyl)-7-methyl-2,3-dioxo-1,2,3,4-tetrahydroquinoxaline-6-sulfonamide] | 100 to 1000 nM | 30 to 100 nM
13 | Cc1cccc(-c2ccc(NS(=O)(=O)c3cc4[nH]c(=O)c(=O)[nH]c4cc3C)cc2)c1 [Compound 112, 7-methyl-N-(3′-methyl-[1,1′-biphenyl]-4-yl)-2,3-dioxo-1,2,3,4-tetrahydroquinoxaline-6-sulfonamide] | 100 to 1000 nM | 100 to 1000 nM
14 | CCc1ccccc1-c1ccc(NS(=O)(=O)c2cc3[nH]c(=O)c(=O)[nH]c3cc2C)cc1 [Compound 113, N-(2′-ethyl-[1,1′-biphenyl]-4-yl)-7-methyl-2,3-dioxo-1,2,3,4-tetrahydroquinoxaline-6-sulfonamide] | 100 to 1000 nM | 100 to 1000 nM
15 | COc1ccccc1-c1ccc(NS(=O)(=O)c2cc3[nH]c(=O)c(=O)[nH]c3cc2C)cc1 [Compound 114, N-(2′-methoxy-[1,1′-biphenyl]-4-yl)-7-methyl-2,3-dioxo-1,2,3,4-tetrahydroquinoxaline-6-sulfonamide] | 100 to 1000 nM | 100 to 1000 nM
16 | Cc1cc(NS(=O)(=O)c2cc3[nH]c(=O)c(=O)[nH]c3cc2C)ccc1C(C)C [Compound 117, N-(4-isopropyl-3-methylphenyl)-7-methyl-2,3-dioxo-1,2,3,4-tetrahydroquinoxaline-6-sulfonamide] | 100 to 1000 nM | 100 to 1000 nM
17 | Cc1cc2[nH]c(=O)c(=O)[nH]c2cc1S(=O)(=O)Nc1ccc(-c2ccccc2N(C)C)cc1 [Compound 119, N-(2′-(dimethylamino)-[1,1′-biphenyl]-4-yl)-7-methyl-2,3-dioxo-1,2,3,4-tetrahydroquinoxaline-6-sulfonamide] | 100 to 1000 nM | 100 to 1000 nM
18 | CCOC(=O)c1ccccc1-c1ccc(NS(=O)(=O)c2cc3[nH]c(=O)c(=O)[nH]c3cc2C)cc1 [Compound 120, ethyl 4′-((7-methyl-2,3-dioxo-1,2,3,4-tetrahydroquinoxaline)-6-sulfonamido)-[1,1′-biphenyl]-2-carboxylate] | 100 to 1000 nM | 1000 to 6000 nM
19 | COc1cc(NS(=O)(=O)c2cc3[nH]c(=O)c(=O)[nH]c3cc2C)ccc1Br [Compound 121, N-(4-bromo-3-methoxyphenyl)-7-methyl-2,3-dioxo-1,2,3,4-tetrahydroquinoxaline-6-sulfonamide] | 100 to 1000 nM | 1000 to 6000 nM
20 | CC(=O)c1ccccc1-c1ccc(NS(=O)(=O)c2cc3[nH]c(=O)c(=O)[nH]c3cc2C)cc1 [Compound 123, N-(2′-acetyl-[1,1′-biphenyl]-4-yl)-7-methyl-2,3-dioxo-1,2,3,4-tetrahydroquinoxaline-6-sulfonamide] | 100 to 1000 nM | 1000 to 6000 nM
21 | COc1cc(NS(=O)(=O)c2cc3[nH]c(=O)c(=O)[nH]c3cc2C)ccc1-c1ccccc1C [Compound 124, N-(2-methoxy-2′-methyl-[1,1′-biphenyl]-4-yl)-7-methyl-2,3-dioxo-1,2,3,4-tetrahydroquinoxaline-6-sulfonamide] | 100 to 1000 nM | 100 to 1000 nM
22 | Cc1ccccc1-c1c(C)cc(NS(=O)(=O)c2cc3[nH]c(=O)c(=O)[nH]c3cc2C)cc1C [Compound 125, 7-methyl-2,3-dioxo-N-(2,2′,6-trimethyl-[1,1′-biphenyl]-4-yl)-1,2,3,4-tetrahydroquinoxaline-6-sulfonamide] | 100 to 1000 nM | 1000 to 6000 nM
23 | Cc1cc2[nH]c(=O)c(=O)[nH]c2cc1S(=O)(=O)Nc1ccc(-c2ccccc2C(N)=O)cc1 [Compound 126, 4′-((7-methyl-2,3-dioxo-1,2,3,4-tetrahydroquinoxaline)-6-sulfonamido)-[1,1′-biphenyl]-2-carboxamide] | 1000 to 3500 nM | 100 to 1000 nM
